Experimental data as given in US20190300882A1, “METHODS OF TREATING NEUROBLASTOMA AND REAGENTS THEREFOR” (GARVAN INSTITUTE OF MEDICAL RESEARCH, priority 2016, published 2019).

How the values were obtained:
[1] = test system: SK-N-DZ MYCN-amplified neuroblastoma cell line; test: Secondary validation screen of synthetic lethal miRNAs with low dose IC30 chemotherapy, additional cell line; type: cell-based; details: for Additional cell line Viability (% of control) SKNDZ DXR: miRNA mimic + low dose IC30 doxorubicin; for Additional cell line Viability (% of control) SKNDZ VCR: miRNA mimic + low dose IC30 vincristine; for Additional cell line Viability (% of control) SKNDZ Vehicle: miRNA mimic + vehicle
Experimental: (§1) KELLY cells were grown in 10% FCS/RPMI as described in Example 1 and reverse transfected in 384-well plate format with 25 nM of a miRNA from the Dharmacon microRNA mimic Library (version 16.0) using liquid-handling robot Calliper Sciclone ALH3000 according to the conditions described in Table 3. After 24 hours, media was changed using a BioTek 406. Media was again changed after 48 hours and 96 hours using a BioTek 406, and at each of those time points low dose IC30 of vincristine or doxorubicin was added to the culture. 144 hours post-transfection, cell viability was determined using CellTiter-Glo luminescent assay (Promega) at 1:2 dilution. Luminescence measurements were taken on the Synergy H4 high-throughput multimode microplate reader as described in Example 1. All screens were performed in duplicates. The experimental design and timeline for this screen are illustrated in FIGS. 5 and 6, respectively.
(§2) The secondary validation screens were performed in accordance with the genome-wide screens described in Example 1 and Example 2, respectively, with the exception that an additional MYCN-amplified neuroblastoma cell line (SK-N-DZ) was added to each screen.
(§3) Furthermore, five additional non-active miRNAs discovered to have no measureable effect across all treatment groups of the genome-wide screen (‘non-lethal’ miRNAs) were included as negative controls.

[2] = test system: KELLY cells; test: Secondary validation screen of synthetic lethal miRNAs with low dose IC30 chemotherapy, cell viability; type: cell-based; details: for synthetic lethality with chemotherapy: in both Kelly and SKNDZ MYCN-amplified cells, secondary screen; for Secondary screen Viability (% of control) Kelly DXR: miRNA mimic + low dose IC30 doxorubicin; for Secondary screen Viability (% of control) Kelly VCR: miRNA mimic + low dose IC30 vincristine; for Secondary screen Viability (% of control) Kelly Vehicle: miRNA mimic + vehicle
Experimental: as §1, §2, §3

[3] = test system: KELLY cells; test: Primary miRNA mimic screen in combination with low dose IC30 of vincristine or doxorubicin, cell viability; type: cell-based; details: for Primary screen Viability (% of control) Kelly DXR: miRNA mimic 25 nM + low dose IC30 doxorubicin; for Primary screen Viability (% of control) Kelly VCR: miRNA mimic 25 nM + low dose IC30 vincristine; for Primary screen Viability (% of control) Kelly Vehicle: miRNA mimic 25 nM + vehicle
Experimental: To systematically identify miRNAs that affect viability and survival of neuroblstoma cells in combination with chemotherapy, a further functional miRNA screen was performed using the 1200 miRNAs from the miRIDIAN miRNA mimic Library (version 16.0; Dharmacon) in combination with low dose IC30 of vincristine or doxorubicin in the two neuroblastoma cancer cell lines. In doing so, the inventors identified miRNAs which result in a lethal phenotype to neuroblastoma cells when administered in combination with low dose IC30 chemotherapy (hereinafter referred to as ‘synthetic lethal’ miRNAs). […] After 24 hours, media was changed using a BioTek 406. […] Luminescence measurements were taken on the Synergy H4 high-throughput multimode microplate reader as described in Example 1. All screens were performed in duplicates.

[4] = test system: IMR-90 cells; test: Cell toxicity screen of synthetic lethal miRNAs in non-cancer cells; details: for cell viability in non-cancer cells, DXR (% of control): IMR-90, miRNA + low dose IC30 doxorubicin; for cell viability in non-cancer cells, VCR (% of control): IMR-90, miRNA + low dose IC30 vincristine; for cell viability in non-cancer cells, Media (% of control): IMR-90, miRNA alone (media); for activity in IMR90 cells: even when administered in combination with a chemotherapeutic agent
Experimental: The cell toxicity screens were performed in IMR-90 cells (normal human fibroblast cells, ATCC).

| Substance | Additional cell line Viability (% of control) SKNDZ DXR [1] | Additional cell line Viability (% of control) SKNDZ VCR [1] | Additional cell line Viability (% of control) SKNDZ Vehicle [1] | synthetic lethality with chemotherapy [2] | Secondary screen Viability (% of control) Kelly DXR [2] | Secondary screen Viability (% of control) Kelly VCR [2] | Secondary screen Viability (% of control) Kelly Vehicle [2] | Primary screen Viability (% of control) Kelly DXR [3] | Primary screen Viability (% of control) Kelly VCR [3] | Primary screen Viability (% of control) Kelly Vehicle [3] | cell viability in non-cancer cells, DXR (% of control) [4] | cell viability in non-cancer cells, VCR (% of control) [4] | cell viability in non-cancer cells, Media (% of control) [4] | activity in IMR90 cells [4] |
| --- | --- | --- | --- | --- | --- | --- | --- | --- | --- | --- | --- | --- | --- | --- |
| hsa-miR-34a-5p (UGGCAGUGUCUUAGCUGGUUGU; chemistry not given here; listed as Homo sapiens) | 74 % of control | 57 % of control | 92 % of control | substantial synthetic lethality | 98 % of control | 35 % of control | 96 % of control | 70 % of control | 36 % of control | 72 % of control | 53 % of control | 63 % of control | 46 % of control |  |
| hsa-miR-380-3p (UAUGUAAUAUGGUCCACAUCUU; chemistry not given here; listed as Homo sapiens) | 30 % of control | 80 % of control | 100 % of control | substantial synthetic lethality | 38 % of control | 76 % of control | 90 % of control | 20 % of control | 63 % of control | 94 % of control | 96 % of control | 117 % of control | 99 % of control | minimal activity |
| hsa-miR-485-3p (guide GUCAUACACGGCUCUCCUCUCU; chemistry not given here; listed as Homo sapiens) | 69 % of control | 68 % of control | 113 % of control | substantial synthetic lethality | 47 % of control | 53 % of control | 85 % of control | 23 % of control | 52 % of control | 72 % of control | 76 % of control | 80 % of control | 79 % of control | minimal activity |
| hsa-miR-99b-5p (guide CACCCGUAGAACCGACCUUGCG; chemistry not given here; listed as Homo sapiens) | 36 % of control | 61 % of control | 93 % of control | substantial synthetic lethality | 29 % of control | 44 % of control | 67 % of control | 28 % of control | 49 % of control | 65 % of control | 72 % of control | 75 % of control | 87 % of control | minimal activity |
| hsa-miR-515-3p (guide GAGUGCCUUCUUUUGGAGCGUU; chemistry not given here; listed as Homo sapiens) | 24 % of control | 70 % of control | 85 % of control | substantial synthetic lethality | 42 % of control | 73 % of control | 82 % of control | 38 % of control | 56 % of control | 84 % of control | 50 % of control | 51 % of control | 59 % of control |  |
| hsa-miR-1321 (CAGGGAGGUGAAUGUGAU; chemistry not given here; listed as Homo sapiens) | 21 % of control | 45 % of control | 64 % of control | substantial synthetic lethality | 7 % of control | 24 % of control | 50 % of control | 4 % of control | 18 % of control | 42 % of control | 23 % of control | 23 % of control | 48 % of control |  |
| hsa-miR-100-5p (AACCCGUAGAUCCGAACUUGUG; chemistry not given here; listed as Homo sapiens) | 48 % of control | 69 % of control | 98 % of control |  | 43 % of control | 43 % of control | 69 % of control | 34 % of control | 48 % of control | 68 % of control |  |  |  |  |
